Data from the supplement of paper PMC10307832.

Key:
Test in all cases: relative viability (nuclei count vs DMSO), 5 days (fraction); higher = more cells survive
[1] = compound: C1=CC=C2C(=C1)C=CC(=C2SSC3=C(C=CC4=CC=CC=C43)O)O [IPA-3] + Cc1nc(NC(=O)N2CCC[C@H]2C(N)=O)sc1-c1ccnc(C(C)(C)C(F)(F)F)c1 [Alpelisib] (partner 2 µM)
In short: (§1)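 Relative viability was taken as the ratio of nuclei in treated wells to nuclei in vehicle wells. Lung cancer cell lines in 1536-well plates received compounds by pin tool one day after seeding, either one drug alone or a fixed anchor-drug dose plus five library-drug doses (not always all listed) in √10 steps. Nuclei were counted on 4× images after 5 days of treatment, and values are medians of duplicate plates.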

[2] = compound: Cc1ccc(-n2nc(C(C)(C)C)cc2NC(=O)Nc2ccc(OCCN3CCOCC3)c3ccccc23)cc1 [Doramapimod] + Cc1cc(Nc2cc(N3CCN(C)CC3)nc(Sc3ccc(NC(=O)C4CC4)cc3)n2)n[nH]1 [Tozasertib] (partner 0.1 µM)
In short: as §1

[3] = compound: Cn1c(Nc2ccc(C(F)(F)F)cc2)nc2cc(Oc3ccnc(-c4ncc(C(F)(F)F)[nH]4)c3)ccc21 [RAF265] + CC1(C)CCC(c2ccc(Cl)cc2)=C(CN2CCN(c3ccc(C(=O)NS(=O)(=O)c4ccc(N[C@H](CCN5CCOCC5)CSc5ccccc5)c(S(=O)(=O)C(F)(F)F)c4)cc3)CC2)C1 [Navitoclax] (partner 0.5 µM)
In short: as §1

[4] = compound: Cn1c(Nc2ccc(C(F)(F)F)cc2)nc2cc(Oc3ccnc(-c4ncc(C(F)(F)F)[nH]4)c3)ccc21 [RAF265] + NC(=O)Nc1cc(-c2cccc(F)c2)sc1C(=O)N[C@H]1CCCNC1 [AZD7762] (partner 0.2 µM)
In short: as §1

Row | Cell Line | relative viability ([1]; first compound 0.2 µM) | relative viability ([1]; first compound 0.6325 µM) | relative viability ([1]; first compound 2 µM) | relative viability ([1]; first compound 6.325 µM) | relative viability ([1]; first compound 20 µM) | relative viability ([2]; first compound 0.02 µM) | relative viability ([2]; first compound 0.06325 µM) | relative viability ([2]; first compound 0.2 µM) | relative viability ([2]; first compound 0.6325 µM) | relative viability ([2]; first compound 2 µM) | relative viability ([3]; first compound 0.01 µM) | relative viability ([3]; first compound 0.03162 µM) | relative viability ([3]; first compound 0.1 µM) | relative viability ([3]; first compound 0.3162 µM) | relative viability ([3]; first compound 1 µM) | relative viability ([4]; first compound 0.01 µM) | relative viability ([4]; first compound 0.03162 µM) | relative viability ([4]; first compound 0.1 µM) | relative viability ([4]; first compound 0.3162 µM) | relative viability ([4]; first compound 1 µM)
1 | NCI-H727 | 0.629 | 0.559 | 0.593 | 0.676 | 0.621 | 0.633 | 0.644 | 0.559 | 0.702 | 0.536 | 0.531 | 0.539 | 0.512 | 0.363 | 0.229 | 0.471 | 0.67 | 0.576 | 0.494 | 0.606
2 | HARA | 0.897 | 0.784 | 0.919 | 0.804 | 1.05 | 0.128 | 0.112 | 0.106 |  | 0.107 | 1.15 | 1.05 | 1.1 | 1.21 | 0.824 | 0.315 | 0.128 | 0.303 | 0.419 | 0.221
3 | NCI-H2228 | 0.948 | 0.785 | 0.884 | 0.68 | 0.51 | 0.263 | 0.296 | 0.258 | 0.263 | 0.242 | 0.741 | 0.971 | 0.903 | 0.945 | 0.726 |  |  |  |  | 
4 | LCLC-97TM1 | 0.281 | 0.299 | 0.241 | 0.232 | 0.246 | 0.22 | 0.228 | 0.21 | 0.266 | 0.142 | 0.512 | 0.356 | 0.461 | 0.191 | 0.135 | 0.203 | 0.323 | 0.259 | 0.167 | 0.0766
5 | LC-2-ad | 0.927 | 0.808 | 0.897 | 0.82 | 0.941 | 0.447 | 0.444 | 0.448 | 0.413 | 0.484 | 0.527 | 0.283 | 0.311 | 0.162 | 0.115 | 0.848 | 0.933 | 0.914 | 0.721 | 0.669
6 | SK-LU-1 | 1.49 |  | 0.974 | 0.859 | 0.739 | 0.348 | 0.41 | 0.314 | 0.347 | 0.277 | 1.41 | 0.682 | 0.718 | 0.744 | 0.273 |  |  |  |  | 
7 | EKVX | 0.923 | 0.859 | 0.941 | 0.941 | 1.27 | 0.324 | 0.385 | 0.43 | 0.336 | 0.341 | 0.939 | 0.916 | 0.957 | 0.606 | 0.637 | 0.685 | 0.777 | 0.706 | 0.412 | 0.298
8 | HCC-827 | 0.972 | 0.961 | 0.971 | 0.978 | 1.01 | 0.422 | 0.414 | 0.422 | 0.375 | 0.356 | 1.06 | 0.987 | 1.08 |  | 0.78 | 0.213 | 0.357 | 0.215 |  | 0.197
9 | NCI-H650 | 1.43 | 1.11 | 1.18 | 1.04 | 1.55 | 0.757 | 0.823 | 0.804 | 0.798 | 0.654 |  |  |  |  |  | 0.969 | 0.966 | 0.996 | 0.551 | 0.748
10 | CAL-12T | 1.38 | 1.14 | 1.18 | 0.999 | 1.27 | 0.298 | 0.341 | 0.338 | 0.272 | 0.315 | 1.28 | 1.01 | 0.861 | 0.757 | 0.523 | 0.56 | 0.631 | 0.678 | 0.598 | 0.504
11 | NCI-H1648 |  |  |  |  |  | 0.442 | 0.498 | 0.58 | 0.353 | 0.481 |  |  |  |  |  | 0.698 | 0.514 | 0.804 | 0.758 | 0.567
12 | NCI-H522 |  |  |  |  |  | 0.501 | 0.489 | 0.579 | 0.59 | 0.471 |  |  |  |  |  | 0.801 | 0.872 | 0.887 | 0.985 | 0.897
13 | IA-LM | 0.884 | 0.735 | 0.731 | 0.703 | 0.738 |  |  |  |  |  | 0.73 |  | 0.663 | 0.597 | 0.609 |  |  |  |  | 
14 | EPLC-272H | 0.962 | 0.947 | 0.902 | 0.968 | 1.23 | 0.319 | 0.275 | 0.441 | 0.29 | 0.246 | 1.03 | 0.98 | 0.851 | 0.503 | 0.383 | 0.213 | 0.181 | 0.223 | 0.161 | 0.15
15 | A-427 | 1.11 | 0.993 | 1.11 | 1.08 | 1.14 | 0.248 | 0.216 | 0.218 |  | 0.189 | 0.929 | 0.678 | 0.96 | 0.579 | 0.272 | 0.798 | 0.746 | 0.641 | 0.448 | 0.247
16 | NCI-H647 | 1.49 | 1.06 | 1.18 | 0.537 | 0.11 | 0.317 | 0.288 | 0.328 | 0.24 | 0.327 | 1.2 | 0.954 | 0.977 | 0.895 | 0.458 | 0.578 | 0.452 | 0.404 | 0.332 | 0.262
17 | NCI-H1975 | 0.644 | 0.65 | 0.628 | 0.753 | 0.708 | 0.802 | 0.729 | 0.937 | 0.817 | 0.639 | 1.17 | 0.812 | 0.912 | 0.528 | 0.324 | 0.694 | 0.667 | 0.635 | 0.484 | 0.406
18 | NCI-H358 | 1.01 | 0.843 | 0.791 | 0.803 | 1.19 | 0.0934 | 0.0925 | 0.101 | 0.105 | 0.109 |  |  |  |  |  | 0.46 | 0.515 | 0.491 | 0.279 | 0.184
